Entries after “also recorded” stand apart in the source; their conditions may differ.
Legend:
[1] = test system: human primary cell-based systems; assay: BioMAP Diversity PLUS panel (whole panel, profile and similarity analysis)
Description: In this study LMW-DS was characterized by profiling in the BioMAP® Diversity PLUS panel. The BioMAP® panel consists of human primary cell-based systems designed to model different aspects of the human body in an in vitro format. The 12 systems in the BioMAP® Diversity PLUS panel (Table 32) allow test agent characterization in an unbiased way across a broad set of systems modeling various human disease states. The BioMA®P systems are constructed with one or more primary cell types from healthy human donors, with stimuli, such as cytokines or growth factors, added to capture relevant signaling networks that naturally occur in human tissue or pathological conditions. Vascular biology is modeled in both a Th1 (3C system) and a Th2 (4H system) inflammatory environment, as well as in a Th1 inflammatory state specific to arterial smooth muscle cells (CASM3C system). Additional systems recapitulate aspects of the systemic immune response including monocyte-driven Th1 inflammation (LPS system) or T cell stimulation (SAg system), chronic Th1 inflammation driven by macrophage activation (IMphg system) and the T cell-dependent activation of B cells that occurs in germinal centers (BT system). The BE3C system (Th1) and the BF4T system (Th2) represent airway inflammation of the lung, while the MyoF system models myofibroblast-lung tissue remodeling. Lastly, skin biology is addressed in the KF3CT system modeling Th1 cutaneous inflammation and the HDF3CGF system modeling wound healing.
Each test agent generates a signature BioMAP® profile that is created from the changes in protein biomarker readouts within individual system environments. Biomarker readouts (7-17 per system) are selected for therapeutic and biological relevance, are predictive for disease outcomes or specific drug effects and are validated using agents with known mechanism of action (MoA). Each readout is measured quantitatively by immune-based methods that detect protein, e.g., ELISA, or functional assays that measure proliferation and viability. BioMAP® readouts are diverse and include cell surface receptors, cytokines, chemokines, matrix molecules and enzymes. In total, the BioMAP® Diversity PLUS panel contains 148 biomarker readouts that capture biological changes that occur within the physiological context of the particular BioMAP® system.
Four concentrations of LMW-DS (150 nM, 440 nM, 1.3 μM, 4 μM) were investigated in the BioMAP® Diversity PLUS panel by Eurofins.
Human primary cells in BioMAP systems are used at early passage (passage 4 or earlier) to minimize adaptation to cell culture conditions and preserve physiological signaling responses. All cells are from a pool of multiple donors (n=2-6), commercially purchased and handled according to the recommendations of the manufacturers. Human blood derived CD14^+ monocytes are differentiated into macrophages in vitro before being added to the /Mphg system. Abbreviations are used as follows: Human umbilical vein endothelial cells (HUVEC), Peripheral blood mononuclear cells (PBMC), Human neonatal dermal fibroblasts (HDFn), B cell receptor (BCR), T cell receptor (TCR) and Toll-like receptor (TLR).
Cell types and stimuli used in each system are as follows: 3C system [HUVEC+(IL-1β, TNFα and IFNγ)], 4H system [HUVEC+(IL-4 and histamine)], LPS system [PBMC and HUVEC+LPS (TLR4 ligand)], SAg system [PBMC and HUVEC+TCR ligands], BT system [CD19^+ B cells and PBMC+(a-IgM and TCR ligands)], BF4T system [bronchial epithelial cells and HDFn+(TNFα and IL-4)], BE3C system [bronchial epithelial cells+(IL-1β, TNFα and IFNγ)], CASM3C system [coronary artery smooth muscle cells+(IL-1β, TNFα and IFNγ)], HDF3CGF system [HDFn+(IL-1β, TNFα, IFNγ, EGF, bFGF and PDGF-BB)], KF3CT system [keratinocytes and HDFn+(IL-1β, TNFα, IFNγ and TGFβ)], MyoF system [differentiated lung myofibroblasts+(TNFα and TGFβ)] and /Mphg system [HUVEC and M1 macrophages+Zymosan (TLR2 ligand)].
Systems are derived from either single cell types or co-culture systems. […]

[2] = test system: 4H system [HUVEC+(IL-4 and histamine)]; assay: BioMAP 4H system; format: cell-based, Human
Description: In this study LMW-DS was characterized by profiling in the BioMAP® Diversity PLUS panel. The BioMAP® panel consists of human primary cell-based systems designed to model different aspects of the human body in an in vitro format. The 12 systems in the BioMAP® Diversity PLUS panel (Table 32) allow test agent characterization in an unbiased way across a broad set of systems modeling various human disease states. The BioMA®P systems are constructed with one or more primary cell types from healthy human donors, with stimuli, such as cytokines or growth factors, added to capture relevant signaling networks that naturally occur in human tissue or pathological conditions. […]
Systems are derived from either single cell types or co-culture systems. […] Test agents prepared in either DMSO (small molecules; final concentration 0.1%) or PBS (biologics) are added at the indicated concentrations 1-hr before stimulation, and remain in culture for 24-hrs or as otherwise indicated (48-hrs, MyoF system; 72-hrs, BT system (soluble readouts); 168-hrs, BT system (secreted IgG)). […] Soluble factors from supernatants are quantified using either HTRF® detection, bead-based multiplex immunoassay or capture ELISA. Overt adverse effects of test agents on cell proliferation and viability (cytotoxicity) are detected by sulforhodamine B (SRB) staining, for adherent cells, and alamarBlue® reduction for cells in suspension. […]

[3] = molecular target: protein-protein interaction between oligomeric amyloid-β and PrP^c (Homo sapiens, UniProt P04156); format: binding

low molecular weight dextran sulfate [LMW-DS]
CD69 ([1]; 150 nM to 4 μM): increased
EGFR ([1]; 150 nM to 4 μM): increased
Eotaxin 3 (Eot3) ([1]; 150 nM to 4 μM): increased
I-TAC ([1]; 150 nM to 4 μM): decreased
IL-8 ([1]; 150 nM to 4 μM): increased
IP-10 ([1]; 150 nM to 4 μM): decreased
M-CSF ([1]; 150 nM to 4 μM): decreased
MCP-1 ([1]; 150 nM to 4 μM): decreased
MIG ([1]; 150 nM to 4 μM): decreased
MMP-1 ([1]; 150 nM to 4 μM): increased
PAI-1 ([1]; 150 nM to 4 μM): increased
VCAM-1 ([1]; 150 nM to 4 μM): decreased
cytotoxicity for human primary cells ([1]; 150 nM to 4 μM): not cytotoxic; also recorded: noncytotoxic
sTNFα ([1]; 150 nM to 4 μM): decreased
secreted immunoglobulin G (sIgG) ([1]; 150 nM to 4 μM): decreased
thrombomodulin (TM) ([1]; 150 nM to 4 μM): increased
uPAR ([1]; 150 nM to 4 μM): increased
annotated readouts in BioMAP profile ([1]; 150 nM, 440 nM, 1.3 μM, 4 μM): 25
proliferation of human primary endothelial cells ([1]; top concentration only (4 μM)): modestly and selectively antiproliferative
Increased biomarker activity [2]: uPAR
Competable binding (%) [3]: 85 ± 4%
Hill coefficient [3]: 1.00 ± 0.21
IC50 [3]: 0.42 ± 0.16 µg/mL
competition for the protein-protein interaction (in words) [3]: in a concentration dependent manner as did LMW-DS

Reference: patent publication US11534457B2, “Use of dextran sulfate” (priority 2017, dated 2022)
